In patent publication US9056844B2, “4-substituted-3-benzyloxy-bicyclo[3.1.0]hexane compounds as mGluR 2/3 antagonists” (Eli Lilly and Company, priority 2010, dated 2015):

Experiments:
mGlu2+/+ mice = experiment: mFST in mGlu2+/+ littermate mice; assay type: in vivo, mouse; details: 30 mg/kg, po, 120 min prior
mice = experiment: mFST with SSRI (fluoxetine combination); assay type: in vivo, mouse
Description: mFST is an established in vivo assay for antidepressant activity (Li et al. J Pharmacol Exp Ther. 319(1):254-9, 2006.). […] J Pharmacol Exp Ther. 319(1):254-9, 2006.). Briefly, male NIH-Swiss mice (Harlan Sprague-Dawley, Indianapolis, Ind.) weighing between 25-30 g are used. Group housed animals are removed from the vivarium to the testing area in their own cages and allowed to adapt to the new environment for at least 1 hour before testing. Compounds where R^1 and R^2 are both hydrogen are dissolved in water with minimal NaOH added for dissolution and are administered i.p. […] Mice are placed in a cylinder (diameter: 10 cm; height: 25 cm) filled with 6 cm of water (22-25° C.) for 6 min. The duration of immobility during the last 4 min. of the 6 min. period of the test was scored. A mouse is recorded as immobile when floating motionless or making only those movements necessary to keep its head above water. The compounds of the invention may also be tested in combination with other compounds useful for the treatment of depressive disorders, as for example SSRI's, for their ability to enhance the antidepressant-like effects over that of either compound alone.

[1] = Brain and plasma levels of active di-acid in the fluoxetine combination study; assay type: in vivo, mouse; details: combination with fluoxetine versus alone
Excerpt: The compounds of the invention may also be tested in combination with other compounds useful for the treatment of depressive disorders, as for example SSRI's, for their ability to enhance the antidepressant-like effects over that of either compound alone.

male NIH-Swiss mice = experiment: Forced-swim test in mice (mFST); assay type: in vivo, mouse
Excerpt: Forced-Swim Test in Mice (mFST)
mFST is an established in vivo assay for antidepressant activity (Li et al. J Pharmacol Exp Ther. 319(1):254-9, 2006.). […] The mFST was used to evaluate potential antidepressant-like activity of novel mGlu2/3 antagonists essentially as described in previously published methods (see for example, Li et al. J Pharmacol Exp Ther. 319(1):254-9, 2006.). Briefly, male NIH-Swiss mice (Harlan Sprague-Dawley, Indianapolis, Ind.) weighing between 25-30 g are used. Group housed animals are removed from the vivarium to the testing area in their own cages and allowed to adapt to the new environment for at least 1 hour before testing. Compounds where R^1 and R^2 are both hydrogen are dissolved in water with minimal NaOH added for dissolution and are administered i.p. Compounds where R^1 and/or R^2 are other than hydrogen are prepared on the day of use in 2.0-2.5% N-methyl-pyrrolidinone and then suspended in 1% HEC, 0.25% Tween 80, and 0.05% Dow antifoam, and administered orally. Mice are placed in a cylinder (diameter: 10 cm; height: 25 cm) filled with 6 cm of water (22-25° C.) for 6 min. The duration of immobility during the last 4 min. of the 6 min. period of the test was scored. A mouse is recorded as immobile when floating motionless or making only those movements necessary to keep its head above water.

male Wistar rats = experiment: Wakefulness and behavioral monitoring in rats (EEG/EMG/LMA); assay type: in vivo, rat; details: for Locomotor Activity Intensity, Mean (difference from vehicle controls): averaged over the first 7 hr post-treatment; for Cumulative Time Awake 8-19 hours, Mean (difference from vehicle controls): rebound hypersomnolence measure
Description: Wakefulness and Behavioral Monitoring in Rats:
Representative compounds of the present invention are tested in rats for their ability to increase the amount of time in a state of wakefulness without undesired effects such as inhibition of REM sleep, waking motor impairment (disproportionate hyper- or hypolocomotion), and/or rebound hypersomnia Test animals are continuously monitored by electro-encephalograms (EEG), electromyograms (EMG), and motion to measure cumulative time awake, rebound hypersomnia, and locomotor activity intensity during wakefulness. Methods for such studies are known in the art (see for example methods described in Edgar D M, Seidel W F. Modafinil induces wakefulness without intensifying motor activity or subsequent rebound hypersomnolence in the rat. J Pharmacology & Experimental Therapeutics 1997; 283: 757-769; van Gelder R N, Edgar D M, Dement W C. Real-time automated sleep scoring: validation of a microcomputer-based system for mice. Sleep 1991, 14: 48-55; and Gross B A, Walsh C M, Turakhia A A, Booth V, Mashour G A, Poe G R. Open-source logic-based automated sleep scoring software using electrophysiological recordings in rats. J Neurosci Methods. 2009; 184(1):10-8.) Studies are conducted as follows:
Adult, male Wistar rats (approximately 270-300 g at time of surgery) are surgically fitted for chronic recording of EEG, EMG, body temperature, and motion as follows: Rats are surgically prepared with a cranial implant consisting of four stainless steel screws for EEG recording (two frontal [3.9 mm anterior from bregma, and ±2.0 mm mediolaterally] and two occipital [6.4 mm posterior from bregma, ±5.5 mm mediolaterally]), and with two Teflon-coated stainless steel wires for EMG recording (positioned under the nuchal trapezoid muscles). All leads are soldered to a miniature connector (Microtech, Boothwyn, Pa.) prior to surgery. The implant assembly is affixed to the skull by the combination of the stainless steel EEG recording screws, cyanoacrylate applied between the implant connector and skull, and dental acrylic. Body temperature and locomotor activity is monitored via a miniature transmitter (Minimitter PDT4000G, Philips Respironics, Bend, Oreg.) surgically placed into the abdomen. At least 3 weeks are allowed for recovery.
Each rat is housed individually within a microisolator cage modified with an inserted polycarbonate filter-top riser to allow more vertical headroom. A flexible cable that minimally restricts movement is connected at one end to a commutator affixed to the cage top and at the other end to the animal's cranial implant. Each cage is located within separate, ventilated compartments of a stainless steel sleep-wake recording chamber. Food and water are available ad libitum and the ambient temperature is maintained at about 23±1° C. A 24-hr light-dark cycle (LD 12:12) using fluorescent light is maintained throughout the study. Relative humidity averages approximately 50%. Animals are undisturbed for at least 30 hrs before and after each treatment.
Compounds where R^1 and R^2 are both hydrogen are dissolved in water with minimal NaOH added for dissolution and are administered i.p in a volume of 1.0 mL per kg body weight. Compounds where R^1 and/or R^2 are other than hydrogen are administer p.o. in a volume of 2 mL per kg body weight in one of two alternative vehicles: i) 2.5% N-methyl-2-pyrrolidinone in hydroxyethylcellulose; or ii) 10% acacia with 0.05% Dow Corning® Antifoam in water. The vehicle or one of the compound dose levels is administered pseudo-randomly such that no rat receives the same treatment twice, and no rat receives more than two of the 8 treatments in any one study. Each rat is removed from its cage for about a minute to be weighed and treated. At least 6 days “washout” period precede and follow each treatment.
Sleep and wakefulness discrimination may be automated (e.g., Van Gelder et al. 1991; Edgar et al. 1997, Winrow et al., 2010; Gross et al., 2009). […]

## CC(C)OC(=O)OCOC(=O)[C@H]1[C@@H]2[C@H](O)[C@@H](OCc3ccc(Cl)c(Cl)c3)[C@@](N)(C(=O)OCOC(=O)OC(C)C)[C@H]12.Cl [Example 10, Bis({[(1-methylethoxy)carbonyl]oxy}methyl) (1S,2R,3S,4S,5R,6R)-2-amino-3-[(3,4-dichlorobenzyl)oxy]-4-hydroxybicyclo[3.1.0]hexane-2,6-dicarboxylate hydrochloride]
mGlu2+/+ mice
  immobility time: decrease immobility time
mice; Example 10 17 mg/kg p.o. with fluoxetine 10 mg/kg i.p.
  antidepressant-like effect in combination with fluoxetine: significantly increase the antidepressant-like effect over that of either compound alone
mice; Example 10 17 mg/kg p.o., fluoxetine 10 mg/kg i.p., alone or combined
  Maximal Decrease (1 − compound/control) * 100%: 24.5%
mice; Example 10 17 mg/kg p.o., fluoxetine 10 mg/kg i.p., alone or combined, vehicle 174
  Immobilization Time: 105 s
[1]
  brain and plasma levels of the active di-acid moiety: no increase in exposure levels
Male NIH-Swiss mice; Mus musculus, po, immobility in last 4 min of 6 min
  ED60: 22.1 mg/kg
Male NIH-Swiss mice; p.o., immobility time
  Maximal Decrease (1 − compound/control) * 100%: 50.5%
Male Wistar rats; 10 mg/kg PO
  Cumulative Time Awake first 7 hours, Mean (difference from vehicle controls): 20.4 min
  Locomotor Activity Intensity, Mean (difference from vehicle controls): 2.7 counts of LMA per minute of EEG-defined wakefulness
  Cumulative Time Awake 8-19 hours, Mean (difference from vehicle controls): 15.2 min
Male Wistar rats; 30 mg/kg PO
  Cumulative Time Awake first 7 hours, Mean (difference from vehicle controls): 48.8 min
  Locomotor Activity Intensity, Mean (difference from vehicle controls): 0.5 counts of LMA per minute of EEG-defined wakefulness
  Cumulative Time Awake 8-19 hours, Mean (difference from vehicle controls): 25.6 min
Male Wistar rats; 60 mg/kg PO
  Cumulative Time Awake first 7 hours, Mean (difference from vehicle controls): 64.7 min
  Locomotor Activity Intensity, Mean (difference from vehicle controls): 4.2 counts of LMA per minute of EEG-defined wakefulness
  Cumulative Time Awake 8-19 hours, Mean (difference from vehicle controls): 34.7 min
